Measured values from US8729088B2, “Toll-like receptor modulators and treatment of diseases” (The Regents of the University of California, priority 2009, dated 2014).

Legend:
[1] = system: C57BL/6 mice; assay: In vivo evaluation of adverse effects of TLR7 conjugates; details: 10 nmoles per mouse with OVA
Experimental: Immunological reaction initiation (e.g. adjuvanticity) by TLR7 conjugates was also examined. Groups (n=5) of C57BL/6 mice were subcutaneously immunized with 20 μg ovalbumin (OVA) mixed with approximately 10 nmol of various TLR7 conjugates, on days 0 and 7, where 10 nmol is a dosage target for the TLR7 portion of the conjugate, and the actual amount will be dependent on the actual chemical formula of each conjugate. […] Sera were collected on days 0, 7, 14, 21, 28, 42 and 56. Mice immunized with saline or OVA mixed with vehicle served as controls. Mice were sacrificed on day 56 and the spleens were harvested for preparation of splenocytes and histological slides. Approximately 200 microliters of a 2.5×10^6/mL spleen cell stock were aliquoted into round-bottom tissue culture microtiter plates in triplicate in a total volume of 200 μl RPMI 1640 complete medium [RPMI1640 (Irvine Scientific, Irvine, Calif.) supplemented with 10% heat-inactivated FCS, 2 mM L-glutamine, and 100 U/mL penicillin/100 μg/mL streptomycin] and restimulated with either 100 μg/mL OVA or medium alone. […] Sections 5 μm thick were stained with hematoxylin and eosin (H&E) and evaluated under the microscope. […]
Therefore, as part of the experimental protocol, body weight and skin reaction (at site of injection) of the mice immunized, with lipid-TLR7 agonist conjugates, was monitored. […]

[2] = system: C57BL/6 mice; assay: Thioglycolate induced peritonitis (peritoneal neutrophil infiltration); details: for cell infiltration, particularly neutrophil, to the peritoneal cavity: three days
Experimental: Peritoneal cells were collected four hours after TG injection. Total cells were counted by haematocytometer and neutrophils were morphologically identified.
4 hours post TG injection total peritoneal cells were harvested and counted. Neutrophils were identified morphologically and counted.
One day after the last treatment, mice received intraperitoneal injection of 2 ml thioglycollate medium. […] Three hours after the thioglycollate injection, neutrophil infiltration to the peritoneum was evaluated.

[3] = 50 nmoles i.v. for three days before thioglycolate

Structure (SMILES)	average body weights versus mice injected saline [1]	neutrophils recruited to the peritoneum [2, 3]	total cells recruited to the peritoneum [2, 3]	adverse reaction compared to TG ([2]; mouse, in vivo)	cell infiltration, particularly neutrophil, to the peritoneal cavity ([2]; oral route)	cell infiltration, particularly neutrophil, to the peritoneal cavity ([2]; systemic (intravenous) route)
CCCCCCCC/C=C\CCCCCCCC(=O)OCC(COP(=O)(O)OCCNC(=O)c1ccc(Cn2c(=O)[nH]c3c(N)nc(OCCOC)nc32)cc1)OC(=O)CCCCCCC/C=C\CCCCCCCC (stereo not drawn) [Compound 6, 2-(4-((6-amino-2-(2-methoxyethoxy)-8-oxo-7H-purin-9(8H)-yl)methyl)benzamido)ethyl 2,3-bis(oleoyloxy)propyl phosphate]	No significant differences					
COCCOc1nc(N)c2nc(O)n(Cc3ccc(C(=O)NCCOCCOCCOCCOCCOCCOCCOCCOCCOCCOCCn4cc(CCC(=O)O)nn4)cc3)c2n1 [Compound 8, 3-(1-(1-(4-((6-amino-8-hydroxy-2-(2-methoxyethoxy)-9H-purin-9-yl)methyl)phenyl)-1-oxo-5,8,11,14,17,20,23,26,29,32-decaoxa-2-azatetratriacontan-34-yl)-1H-1,2,3-triazol-4-yl)propanoic acid]		reduction	reduction	no additional adverse reaction	reduced cell infiltration	reduced cell infiltration
